Test results reported in patent US8609644B2, “Amino derivatives of androstanes and androstenes as medicaments for cardiovascular disorders” (priority 2006, dated 2013).
Where a name gives a salt, the structure may show the parent alone.

biological target: Na+, K+-ATPase (Canis lupus familiaris, UniProt P50997); test: biochemical; design: species or system dog; settings: Na+, K+-ATPase Inhibition IC50

Q: For `CC12CCC3C(CC(=CCO)C4CC(=NOCCN)CCC43C)C1CCC2=O` (mixture of isomers) [I-bj, (E,Z) 3-(2-Aminoethoxyimino)-6-(E)-[2-hydroxyethylidene]androstan-17-one hydrochloride], which IC50 is on record?
A: 770 nM

Q: Which IC50 does the source give for `C#CC1CC2C3CCC(=O)C3(C)CCC2C2(C)CCC(=NOCCCNC)CC12` (stereo not drawn) [I-cq, (E,Z) 3-(3-N-Methylaminopropoxyimino)-6α-ethynylandrostan-17-one hydrochloride] here?
A: 1200 nM

Q: `CC1CC2C3CCC(=O)C3(C)CCC2C2(C)CCC(=NOCCN)CC12` (single isomer, unassigned) [I-az, (E,Z) 3-(2-Aminoethoxyimino)-6β-methylandrostan-17-one hydrochloride] was tested. Which IC50 did it give?
A: 6000 nM

Q: `C[C@]12CCC(=NOCCN)C[C@@H]1C(=C(F)F)C[C@@H]1[C@@H]2CC[C@]2(C)C(=O)CC[C@@H]12` (mixture of isomers) [I-bh, (E,Z) 3-(2-Aminoethoxyimino)-6-difluoromethyleneandrostan-17-one hydrochloride] was tested. Which IC50 did it give?
A: 190 nM

Q: With `C[C@H]1C[C@H]2CC(=NOCCN)CC[C@]2(C)[C@H]2CC[C@]3(C)C(=O)CC[C@H]3[C@H]12` (mixture of isomers) [I-by, (E,Z) 3-(2-Aminoethoxyimino)-7β-methylandrostane-17-dione hydrochloride] as the molecule, how does the IC50 read?
A: 640 nM

Q: How did the IC50 turn out when `C/C=C1\C[C@@H]2[C@H](CC[C@]3(C)C(=O)CC[C@@H]23)[C@@]2(C)CCC(=NOCCN)C[C@H]12` (mixture of isomers) [I-bg, (E,Z) 3-(2-Aminoethoxyimino)-6-(E)-ethylidenandrostan-17-one hydrochloride] was run?
A: 1100 nM

Q: How did the IC50 turn out when `C=C1C[C@H]2[C@@H]3CCC(=O)[C@@]3(C)CC[C@@H]2[C@@]2(C)CCC(=NOCCCNC)C[C@]12O` (mixture of isomers) [I-ct, (E,Z) 3-(3-N-Methylaminopropoxyimino)-5α-hydroxy-6-methylenandrostan-17-one hydrochloride] was run?
A: 1400 nM

Q: With `C=C1CC2CC(=NOCCN)CCC2(C)C2CCC3(C)C(=O)CCC3C12` (mixture of isomers) [I-bx, (E,Z) 3-(2-Aminoethoxyimino)-7-methyleneandrostane-17-one hydrochloride] as the molecule, how does the IC50 read?
A: 400 nM

Q: How did the IC50 turn out when `C=C1C[C@@H]2[C@H](CC[C@]3(C)C(=O)CC[C@@H]23)[C@@]2(C)CC/C(=N\OCCCNC)C[C@H]12` [I-cj, (E) 3-(3-N-Methylaminopropoxyimino)-6-methyleneandrostan-17-one fumarate] was run?
A: 380 nM

same assay, conditions: dog kidney enzyme; read-out: Na+, K+-ATPase Inhibition IC50

Q: For `CC12CCC3C(CC(O[N+](=O)[O-])C4CC(=NOCCN)CCC43C)C1CCC2=O` (single isomer, unassigned) [I-aa, (E,Z) 3-(2-Aminoethoxyimino)-17-oxoandrostane-6α-yl nitrate fumarate], which IC50 is on record?
A: 330 nM

Q: `C[C@]12CCC(=NOCCN)C[C@@H]1[C@]1(CO1)C[C@@H]1[C@@H]2CC[C@]2(C)C(=O)CC[C@@H]12` (mixture of isomers) [I-bb, (E,Z)-3-(2-Aminoethoxyimino)androstane-6(S)-(spiro-2′-oxirane)-17-one hydrochloride] was tested. Which IC50 did it give?
A: 870 nM

Q: Which IC50 does the source give for `COC(=O)C1CC2C3CCC(=O)C3(C)CCC2C2(C)CCC(=NOCCN)CC12` (mixture of isomers) [I-au, (E,Z) 3-(2-Aminoethoxyimino)-6α-methoxycarbonylandrostan-17-one hydrochloride] here?
A: 410 nM

Q: How did the IC50 turn out when `CNCCCON=C1CC[C@@]2(C)[C@H](C1)[C@@H](C(N)=O)C[C@@H]1[C@@H]2CC[C@]2(C)C(=O)CC[C@@H]12` (mixture of isomers) [I-cn, (Z,E) 3-(3-N-Methylaminopropoxyimino)-6α-carbamoylandrostan-17-one hydrochloride] was run?
A: 1900 nM

Q: For `COC(=O)C=C1CC2C3CCC(=O)C3(C)CCC2C2(C)CCC(=NOCCN)CC12` (mixture of isomers) [I-bk, Methyl [3-(E,Z)-(2-aminoethoxyimino)-17-oxoandrostane-6-(E)-ylidene]-acetate hydrochloride], which IC50 is on record?
A: 64000 nM

Q: Which IC50 does the source give for `CC12CCC3C(CC4(OCCO4)C4CC(=NOCCN)CCC34C)C1CCC2=O` (mixture of isomers) [I-ag, (E,Z) 3-(2-Aminoethoxyimino)-6-(2-spiro-1,3-dioxolane)androstane-17-one fumarate] here?
A: 5400 nM

Q: How did the IC50 turn out when `COCC1CC2CC(=NOCCN)CCC2(C)C2CCC3(C)C(=O)CCC3C12` (mixture of isomers) [I-ed, (E,Z) 3-(2-Aminoethoxyimino)-7α-methoxymethylandrostane-17-one hydrochloride] was run?
A: 38000 nM

Q: For `CNCCCON=C1CCC2(C)C(C1)C(C(=O)OC)CC1C3CCC(=O)C3(C)CCC12` (mixture of isomers) [I-cm, (Z,E) 3-(3-N-Methylaminopropoxyimino)-6α-methoxycarbonylandrostan-17-one hydrochloride], which IC50 is on record?
A: 4000 nM

Q: With `CC12CCC3C(C(=O)C(CO)C4CC(=NOCCN)CCC43C)C1CCC2=O` (mixture of isomers) [I-cd, (E,Z) 3-(2-Aminoethoxyimino)-6α-hydroxymethylandrostane-7,17-dione hydrochloride] as the molecule, how does the IC50 read?
A: 12 nM

Q: With `CC12CCC3C(CC(O[N+](=O)[O-])C4CC(=NOCCN)CCC43C)C1CCC2=O` (single isomer, unassigned) [I-ab, (E,Z) 3-(2-Aminoethoxyimino)-17-oxoandrostane-6β-yl nitrate fumarate] as the molecule, how does the IC50 read?
A: 2900 nM

Q: With `CC12CCC3C(CC(CNC=O)C4CC(=NOCCN)CCC43C)C1CCC2=O` (mixture of isomers) [I-bn, (E,Z) 3-(2-Aminoethoxyimino)-6α-formamidomethylandrostane-17-one hydrochloride] as the molecule, how does the IC50 read?
A: 5100 nM

Q: For `C[C@]12CCC(=NOCCN)C[C@@H]1C[C@@H](CO)[C@@H]1[C@@H]2CC[C@]2(C)C(=O)CC[C@@H]12` (mixture of isomers) [I-bz, (E,Z) 3-(2-Aminoethoxyimino)-7α-hydroxymethylandrostane-17-one hydrochloride], which IC50 is on record?
A: 1100 nM

Q: Which IC50 does the source give for `CCON=C1CC2C3CCC(=O)C3(C)CCC2C2(C)CCC(=NOCCN)CC12` (mixture of isomers) [I-ax, (E,Z)-3-(2-Aminoethoxyimino)-6-(E)-ethoxyiminoandrostan-17-one hydrochloride] here?
A: 1700 nM

Q: How did the IC50 turn out when `C[C@]12CC[C@H]3[C@@H](C[C@@H](C#N)[C@@]4(O)CC(=NOCCN)CC[C@]34C)[C@@H]1CCC2=O` (mixture of isomers) [I-ae, (E,Z) 3-(2-Aminoethoxyimino)-5α-hydroxy-6β-cyanoandrostane-17-one fumarate] was run?
A: 11000 nM

Q: Which IC50 does the source give for `CNCCCON=C1CCC2(C)C3CCC4(C)C(=O)CCC4C3CC3(CC3)C2C1` (mixture of isomers) [I-cp, (E,Z) 3-(3-N-Methylaminopropoxyimino)-6-(spirocyclopropane)androstan-17-one hydrochloride] here?
A: 1300 nM

Q: For `C=CCON=C1CC2CC(=NOCCN)CCC2(C)C2CCC3(C)C(=O)CCC3C12` (mixture of isomers) [I-bu, (E,Z)-3-(2-Aminoethoxyimino)-7-(E)-allyloxyiminoandrostan-17-one fumarate], which IC50 is on record?
A: 3800 nM

Q: Which IC50 does the source give for `CNCCCON=C1CCC2(C)C(C1)CC1(CC1)C1C3CCC(=O)C3(C)CCC12` (mixture of isomers) [I-cv, (E,Z) 3-(3-N-Methylaminopropoxyimino)-7-(spirocyclopropane)androstan-17-one hydrochloride] here?
A: 740 nM

Q: `COCC1CC2C3CCC(=O)C3(C)CCC2C2(C)CCC(=NOCCN)CC12` (mixture of isomers) [I-ak, (E,Z) 3-(2-Aminoethoxyimino)-6β-methoxymethylandrostan-17-one hydrochloride] was tested. Which IC50 did it give?
A: 3000 nM

same assay, conditions: read-out: Na+, K+-ATPase Inhibition IC50

Q: Which IC50 does the source give for `C[C@]12CCC(=NOCCN)CC1C[C@@H](O)[C@@H]1[C@@H]2CC[C@]2(C)C(=O)CC[C@@H]12` (stereo partly drawn) [I-bv, (E,Z) 3-(2-Aminoethoxyimino)-7α-hydroxyandrostane-17-one fumarate] here?
A: 520 nM

Q: With `C[C@]12CCC(=NOCCN)CC1[C@@H](C=NO)C[C@@H]1[C@@H]2CC[C@]2(C)C(=O)CC[C@@H]12` (stereo partly drawn) [I-an, 3-(E,Z)-(2-Aminoethoxyimino)-17-oxoandrostane-6α-carbaldehyde (E,Z)-oxime fumarate] as the molecule, how does the IC50 read?
A: 390 nM

Q: Which IC50 does the source give for `C=C1C[C@@H]2[C@H](CC[C@]3(C)C(=O)CC[C@@H]23)[C@@]2(C)CC[C@@H]([S@+]([O-])CCCN)CC12` (stereo partly drawn) [I-ec, 3α-[(R)-3-Aminopropylsulfinyl]-6-methyleneandrostane-17-one fumarate] here?
A: 80000 nM

Q: For `C[C@]12CCC(=NOCCN)CC1C1(CO1)C[C@@H]1[C@@H]2CC[C@]2(C)C(=O)CC[C@@H]12` (stereo partly drawn) [I-bc, (E,Z)-3-(2-Aminoethoxyimino)androstane-6(R)-(spiro-2′-oxirane)-17-one hydrochloride], which IC50 is on record?
A: 910 nM

Q: For “3α-(3-Aminopropylthio)-6-(E)-hydroxyiminoandrostane-17-one hemifumarate [I-dw]”, which IC50 is on record?
A: 850 nM

Q: How did the IC50 turn out when `C=C1C[C@@H]2[C@H](CC[C@]3(C)C(=O)CC[C@@H]23)[C@@]2(C)CCC(=NOCCN)CC12` (some centres unmarked) [I-ah, (E,Z) 3-(2-Aminoethoxyimino)-6-methyleneandrostan-17-one hydrochloride] was run?
A: 42 nM

Q: With `C[C@]12CCC(=NOCCN)CC1C[C@@H](NC=O)[C@@H]1[C@@H]2CC[C@]2(C)C(=O)CC[C@@H]12` (stereo partly drawn) [I-bw, (E,Z)-3-(2-Aminoethoxyimino)-7α-formamidoandrostane-3,17-dione hydrochloride] as the molecule, how does the IC50 read?
A: 6000 nM

Q: `CC12CCC3C(CC(C(N)=O)C4CC(=NOCCN)CCC43C)C1CCC2=O` (mixture of isomers) [I-at, (E,Z) 3-(2-Aminoethoxyimino)-6α-carbamoylandrostan-17-one fumarate] was tested. Which IC50 did it give?
A: 630 nM

Q: With `C[C@]12CCC(=NOCCN)CC1C1(CC1)C[C@@H]1[C@@H]2CC[C@]2(C)C(=O)CC[C@@H]12` (some centres unmarked) [I-bl, E,Z) 3-(2-Aminoethoxyimino)-6-(spirocyclopropane)androstane-17-one hydrochloride] as the molecule, how does the IC50 read?
A: 850 nM

Q: `C[C@]12CCC(=NOCCN)CC1C[C@H](CO)[C@@H]1[C@@H]2CC[C@]2(C)C(=O)CC[C@@H]12` (stereo partly drawn) [I-ca, (E,Z) 3-(2-Aminoethoxyimino)-7β-hydroxymethylandrostane-17-one hydrochloride] was tested. Which IC50 did it give?
A: 910 nM

Q: Which IC50 does the source give for `CNCCCON=C1CC[C@]2(C)[C@H]3CC[C@]4(C)C(=O)CC[C@H]4[C@@H]3CC(=NOC)[C@@]2(O)C1` [I-cs, (E,Z) 3-(3-N-Methylaminopropoxyimino)-5α-hydroxy-6-(E)-methoxyimino-androstane-17-one fumarate] here?
A: 1100 nM
